US8575175B2, “Therapeutic agent for chronic renal failure” (Toray Industries, Inc., priority 2008, dated 2013)
Counter-ions that a name gives are not always drawn.

Columns and labels:
[1] = system: ADP-induced rat platelet aggregation; test: Platelet aggregation inhibition action in rat (ADP-induced aggregation after oral administration); type: in vivo; details: stimulation with 10 μM ADP; oral: sodium salt of Compound 1 30 mg/kg (blood at 1 hour), beraprost sodium 0.3 mg/kg (0.5 hour); n=6
Protocol: To determine the dose with which the PGI2-receptor agonistic activity is equivalent between the sodium salt of Compound 1 and beraprost sodium, the platelet aggregation inhibition action which is the major pharmacological action of PGI2-receptor agonists was used as an index for comparison. The sodium salt of Compound 1 (30 mg/kg) or beraprost sodium (0.3 mg/kg) was orally administered to rats fasted for 1 day, and blood was collected therefrom at the time when the plasma level of each compound became maximum, that is, 1 hour after the administration of the sodium salt of Compound 1 (Non-patent Document: J Pharmacol Exp Ther 322:1181-1188 2007) or 0.5 hour after the administration of beraprost sodium (Non-patent Document: Xenobiotic Metabolism and Disposition 6:713-725 1989), followed by measuring ADP-induced rat platelet aggregation. In the both groups, the experiment was carried out with n=6. The sodium salt of Compound 1, which was one of the PGI2-receptor agonists used herein, was synthesized by treating a carboxylic acid with sodium hydroxide, which carboxylic acid was synthesized according to the method described in Patent Document 4.

[2] = system: rats suffering from chronic renal failure; test: Pharmacological effect in rats suffering from chronic renal failure: renal function, hematocrit, hemoglobin; type: in vivo, WKY rats; details: for Hematocrit value / Hemoglobin content: oral twice a day from week 2
Protocol: Rabbit anti-rat glomerular basement membrane antiserum (14-fold diluted, 3 mL/kg) was intravenously injected to WKY rats of 8 weeks old, to induce glomerulonephritis. […] Further, creatinine clearance, which is used as an alternative to glomerular filtration rate (GFR), was 2.63±0.07 mL/min. (N=3) in the normal group, and 1.22±0.04 mL/min. (N=21) in the nephritis-induced group. That is, creatinine clearance in the nephritis-induced group decreased to not more than 50% with respect to that of the normal group, and therefore it was confirmed that the nephritis-induced group developed chronic renal failure whose primary disease was glomerulonephritis. Thus, the time of establishment of the chronic renal failure was defined as 2 weeks after the induction of nephritis. […] This stage was the phase in which introduction of dialysis is considered in human, and corresponded to the most serious phase in chronic renal failure in the conservative stage.
Thus, 2 weeks after the induction of nephritis, based on the serum creatinine value, the rats suffering from chronic renal failure were grouped into the normal group (with neither induction of nephritis nor administration, n=4), the control group (administration of only a vehicle, n=7), the group to be treated with the sodium salt of Compound 1 (administration of 30 mg/kg twice a day, n=7) and the group to be treated with beraprost sodium (administration of 0.3 mg/kg twice a day, n=7), after which oral administration of the drugs were begun, followed by daily administration thereof. As the vehicle for the drugs, 0.25% sodium carboxymethylcellulose solution was used.
(§1) From 2 weeks after the induction of nephritis when the chronic renal failure was established, until 6 weeks after the induction of nephritis, urine collection and blood collection were carried out as appropriate, and the serum creatinine value, BUN and creatinine clearance were measured for each group to evaluate renal function. Further, the hematocrit, the hemoglobin content, and the SOD activity of the renal tissue, which are closely linked to the diseased state of chronic renal failure, were measured, and the expression level of mRNA of an organic anion transporter OAT-3 was quantified. The SOD activity was measured with the SOD assay kit WST (Dojindo Laboratories), and the expression level of mRNA of OAT-3 was quantified using LightCycler FastStart DNA Master SYBR Green I (Roche).
Six weeks after the induction of nephritis when the chronic renal failure in the conservative stage progressed to a serious phase in the control group, a statistical analysis was carried out. In terms of statistical difference, homoscedasticity was tested by the Bartlett's test between the control group and the respective drug-administered groups. In homoscedastic cases, the parametric Dunnett's test was carried out between the respective drug-administered groups and the control group, while in heteroscedastic cases, the nonparametric Dunnett's test was carried out therebetween, using a significance level of less than 5%.

SOD = SOD activity in the renal tissue of rats suffering from chronic renal failure; type: in vivo, WKY rats; details: 6 weeks after induction of nephritis, oral twice a day from week 2, mean ± SE, n=7
Protocol: (§2) Rabbit anti-rat glomerular basement membrane antiserum (14-fold diluted, 3 mL/kg) was intravenously injected to WKY rats of 8 weeks old, to induce glomerulonephritis. […] Further, creatinine clearance, which is used as an alternative to glomerular filtration rate (GFR), was 2.63±0.07 mL/min. (N=3) in the normal group, and 1.22±0.04 mL/min. (N=21) in the nephritis-induced group. That is, creatinine clearance in the nephritis-induced group decreased to not more than 50% with respect to that of the normal group, and therefore it was confirmed that the nephritis-induced group developed chronic renal failure whose primary disease was glomerulonephritis. Thus, the time of establishment of the chronic renal failure was defined as 2 weeks after the induction of nephritis. […]
as §1, with “The SOD activity was measured with the SOD assay kit WST (Dojindo Laboratories), and the expression level of mRNA of OAT-3 was quantified using LightCycler FastStart DNA Master SYBR Green I (Roche).” left out

OAT-3 = test: Expression level of mRNA of OAT-3 in the renal cortex of rats suffering from chronic renal failure; type: in vivo, WKY rats; details: 6 weeks after induction of nephritis, oral twice a day from week 2, mean ± SE, n=7, normal group 1.00 ± 0.06
Protocol: as §2
as §1, with “The SOD activity was measured with the SOD assay kit WST (Dojindo Laboratories), and the expression level of mRNA of OAT-3 was quantified using LightCycler FastStart DNA Master SYBR Green I (Roche).” left out

[3] = after oral administration to rats; from cited literature; cited from earlier work
[4] = Plasma level of Compound 1 and bioavailability after administration of Compound 1 and Compound 2 to rats; type: in vivo; details: rat, 5 mg/kg oral vs Compound 1 1 mg/kg intravenous, Compound 1 measured in plasma, corrected for molecular weight, mean ± SE, n=3
Protocol: Compound 1 or Compound 2 was orally administered to rats in an amount of 5 mg/kg, and Compound 1 was intravenously administered in an amount of 1 mg/kg, after which the concentration of Compound 1 in plasma was measured. The experiment was carried out with n=3 in each of the both groups. […] Thus, it was shown that Compound 2 can be used in a manner similar to Compound 1. Compound 1 and Compound 2 used in this experiment was synthesized in accordance with the method described in Patent Document 4.

[5] = 6 weeks after induction of nephritis, oral twice a day from week 2 (Compound 1 Na salt 30 mg/kg, beraprost sodium 0.3 mg/kg), mean ± SE, n=7
[6] = 6 weeks after induction of nephritis, mean ± SE, n=7
[7] = until 6 weeks after the induction of nephritis, 30 mg/kg oral twice a day

bioavailability [4] [%]	Structure (SMILES)	rate of suppression of rat platelet aggregation [1] [%]	BUN [2, 5] [mg/dL]	Creatinine clearance [2, 5] [mL/min]	Serum creatinine value [2, 5] [mg/dL]	Hematocrit value [2, 6] [%]	Hemoglobin content [2, 6] [g/dL]	SOD activity (%, taking the activity in the normal group as 100%) (SOD) [%]	Expression level of mRNA of OAT-3 (ratio to that of GAPD) (OAT-3)	time when the plasma level became maximum [3] [h]	Creatinine clearance ([2]; 2 weeks after induction of nephritis, at the beginning of the administration (baseline of the treated group)) [mL/min]	Creatinine clearance ([2]; 6 weeks after induction of nephritis, oral twice a day from week 2 (Compound 1 Na salt 30 mg/kg, beraprost sodium 0.3 mg/kg), mean ± SE, n=7, listed as sodium salt of Compound 1) [mL/min]	BUN, course compared to control group (FIG. 2) [2, 7]	creatinine clearance, course compared to control group (FIG. 3) [2, 7]	serum creatinine value, course compared to control group (FIG. 1) [2, 7]
–	CC#CCC(C)[C@H](O)/C=C/[C@@H]1[C@H]2c3cccc(CCCC(=O)O)c3O[C@H]2C[C@H]1O (mixture of isomers) [Beraprost sodium, reference compound]	64.2±8.3	42.1 ± 6.41	0.77 ± 0.13	0.85 ± 0.12	33.9 ± 0.97	12.3 ± 0.28	67.9 ± 5.45	0.24 ± 0.04	0.5	–	–	–	–	–
43.3 ± 2.6	CC(C)N(CCCCOCC(=O)O)c1cnc(-c2ccccc2)c(-c2ccccc2)n1 [Compound 1]	–	–	–	–	–	–	–	–	–	–	–	–	–	–
–	CC(C)N(CCCCOCC(=O)O)c1cnc(-c2ccccc2)c(-c2ccccc2)n1 [Sodium salt of Compound 1]	47.0±7.9	26.8 ± 2.49	1.48 ± 0.11	0.47 ± 0.04	37.1 ± 0.71	13.7 ± 0.28	83.6 ± 2.52	0.42 ± 0.05	1	1.21 ± 0.06	1.48 ± 0.11	kept low compared to that in the control group	kept high compared to that in the control group	kept low compared to that in the control group
